Data: PubChem BioAssay AID2305 (GlaxoSmithKline (GSK), 2010)

System: P. falciparum 3D7 growth, pLDH absorbance
Assay: blood-stage malaria parasite growth potency – strain 3D7, dose response (AID 2305)

Compound | IC50
CN1CCN(CCCN(Cc2ccc(-c3ccc(CNCc4ccc5c(c4)OCO5)cc3)cc2)C(=O)CCC2CCCC2)CC1 | 950 nM
CCCCn1c(SC(C)C)nc2c(c1=O)C1(CCCCC1)Cc1ccccc1-2 | 670 nM
CC(=NNc1nc2ccccc2s1)c1ccccn1 | 1120 nM
Cc1noc(C)c1CN1CCCN(c2ccc3c(c2)CCN(Cc2ccc(-c4ncc[nH]4)cc2)CC3)CC1 | 860 nM
COc1cc(NC(=O)CCCCCCCCN2CCN(C)CC2)c2ncccc2c1 | 890 nM
COc1cc(C(=O)Nc2ccc3nc(N4CCN(C)CC4)cc(C)c3c2)cc(OC)c1OC | 290 nM
O=C(NC1CCC(CN2CCC(c3c[nH]c4ccccc34)CC2)CC1)c1cc(-c2ccccc2)c(C(F)(F)F)s1 (centres undefined) | 170 nM
COc1ccccc1NC(=O)CSc1nc2cccnc2n1-c1ccccc1OC | 360 nM
COc1ccc(-c2cc(-c3ccc(S(C)(=O)=O)cc3)cnc2N)cn1 | 190 nM
Clc1ccc2c(NCCCCCCCCNc3ccnc4cc(Cl)ccc34)ccnc2c1 | 480 nM
COc1ccc(Nc2nccc(NCCNC(=O)Nc3ccccc3F)n2)cc1 | 1320 nM
CN1CCCc2ccc(NC(=O)Nc3ccc(-c4ccccc4)cc3)cc2C1 | 380 nM
Cc1ccccc1NC(=O)C1CSCN1C(=O)OCc1ccccc1 (centres undefined) | 980 nM
Cc1cc(N2CCC(NS(=O)(=O)c3cccc4cccnc34)CC2)nc(Nc2cccc(C#N)c2)n1 | 750 nM
CS(=O)(=O)NCCCNCc1cccc(-c2ccc(-c3nc4ccc(C(F)(F)F)cc4[nH]3)cc2)c1 | 1000 nM
Cn1nc(C(F)(F)F)c(-c2ccc(Br)cc2)c1NC(=O)Cc1ccccc1F | 160 nM
O=C(Nc1cccc(-c2cccc(-c3nc4ccccc4[nH]3)c2)c1)c1csnn1 | 920 nM
COc1cccc(NC(=O)CSc2nc(-c3ccccc3Cl)ns2)c1 | 810 nM
CCn1c(-c2nonc2N)nc2c(Cl)ncc(O[C@H](CCN)c3ccccc3F)c21 | 1460 nM
COc1ccc(CCNC(C)Cc2ccc(C(=O)Nc3ccc(CC(C)NCCc4cccc(Cl)c4)cc3)cc2)cc1 (centres undefined) | 250 nM

Compound | IC50
Cc1cc(CNCC2CCC(CNCCCc3ccccc3)CC2)ccc1O (centres undefined) | 870 nM
CC(=O)Nc1ccc(S(=O)(=O)N(Cc2cccc(Oc3ccccc3)c2)C2CCN(C/C=C(\C)CCC=C(C)C)CC2)cc1 | 190 nM
O=C(/C=C/c1ccc(Cl)c(Cl)c1)NCC1CCN(Cc2ccc(O)cc2)CC1 | 690 nM
O=C(NCc1ccccc1)Nc1ccc(-c2cccc(-c3nc4ccc(C(F)(F)F)cc4[nH]3)c2)cc1 | 660 nM
CCCCC(=O)N(CCOC)Cc1ccc(-c2ccc(CNCCC)cn2)cc1 | 730 nM
CC(C)COc1ccc2ccccc2c1CNCCCCCCNCc1c(OCC(C)C)ccc2ccccc12 | 700 nM
COC(=O)c1cccc(CNCc2ccc(-c3ccc(-c4nc5ccc(F)cc5[nH]4)cc3)cc2)c1 | 240 nM
CCCN1CCN(c2ccc(NS(=O)(=O)c3ccc(C(=O)Nc4ccc(Cl)cc4)cc3)cc2)CC1 | 1110 nM
Cc1c(CNCCCNc2cc(=O)c3ccccc3[nH]2)sc(C(F)=C(F)F)c1Br | 840 nM
O=C(Nc1ccc2c(c1)CCN(C1CCC1)CC2)c1ccc(-c2cn3ccccc3n2)cc1 | 880 nM
O=C(Nc1cc(C(F)(F)F)cc(C(F)(F)F)c1)N1CCC(CN2CCC(c3c[nH]c4ccccc34)CC2)CC1 | 190 nM
CC(=O)Nc1ccc(C(=O)Nc2cccc(-c3cccc(-c4nc5ccc(F)cc5[nH]4)c3)c2)cn1 | 130 nM
O=C(N[C@H]1CCCC[C@H]1C(=O)O)c1ccccc1 | 780 nM
O=C(Nc1ccc(Oc2ccccc2)cc1)N[C@@H](Cc1ccc(O)cc1)C(=O)NC1CCN(Cc2ccc(O)c([N+](=O)[O-])c2)C1 (some centres undefined) | 1510 nM
CCCc1cc(C)ccc1OCCCON1C(NC(=O)OCC)=NC(NC(=O)OCC)=NC1(C)C | 40 nM
COc1ccc(-c2ccc(NC(=O)c3cccc(C#N)c3)cc2)cc1CN(C)C | 730 nM
CCc1ccc(C2CCN(CCCCNC(=O)c3ccc(-c4ccc(C#N)cc4)cc3)CC2)c(OCCO)c1 | 940 nM
NCc1ccc(-c2cccc(CNC3CCN(Cc4ccccc4)CC3)c2)cc1 | 670 nM
CC1CCN(C(=O)CSc2nc(-c3ccc(C(C)C)cc3)no2)CC1 | 1350 nM
